Here are results for 30 molecules from patent US12065436B2, “Cardiac sarcomere inhibitors” (Cytokinetics, Inc., priority 2018, dated 2024).

For the assay, the target named is bovine cardiac myofibrils (full-length cardiac myosin ATPase in the native sarcomere) (Bos taurus (Bovine), UniProt Q9BE39). Put plainly: Skinned bovine cardiac myofibril ATPase assay (PK/LDH-coupled). In kind it is biochemical. As to conditions: Ca2+ activating to 75% of maximal rate; for CDMF75 IC15: concentration giving 15% inhibition; for IC50: read-out: CDMF75 IC50. Summed up: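 Triton-skinned bovine left-ventricle myofibrils (1 mg/mL) in PM 12 buffer (12 mM PIPES, 2 mM MgCl2, pH 6.8) with 50 μM ATP, 0.6 mM EGTA and CaCl2 set for 50% or 75% activation. Steady-state ATPase inhibition followed by PK/LDH-coupled NADH oxidation at 340 nm.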
bovine cardiac myofibrils (full-length cardiac myosin ATPase in the native sarcomere), sequence (Q9BE39 whole entry): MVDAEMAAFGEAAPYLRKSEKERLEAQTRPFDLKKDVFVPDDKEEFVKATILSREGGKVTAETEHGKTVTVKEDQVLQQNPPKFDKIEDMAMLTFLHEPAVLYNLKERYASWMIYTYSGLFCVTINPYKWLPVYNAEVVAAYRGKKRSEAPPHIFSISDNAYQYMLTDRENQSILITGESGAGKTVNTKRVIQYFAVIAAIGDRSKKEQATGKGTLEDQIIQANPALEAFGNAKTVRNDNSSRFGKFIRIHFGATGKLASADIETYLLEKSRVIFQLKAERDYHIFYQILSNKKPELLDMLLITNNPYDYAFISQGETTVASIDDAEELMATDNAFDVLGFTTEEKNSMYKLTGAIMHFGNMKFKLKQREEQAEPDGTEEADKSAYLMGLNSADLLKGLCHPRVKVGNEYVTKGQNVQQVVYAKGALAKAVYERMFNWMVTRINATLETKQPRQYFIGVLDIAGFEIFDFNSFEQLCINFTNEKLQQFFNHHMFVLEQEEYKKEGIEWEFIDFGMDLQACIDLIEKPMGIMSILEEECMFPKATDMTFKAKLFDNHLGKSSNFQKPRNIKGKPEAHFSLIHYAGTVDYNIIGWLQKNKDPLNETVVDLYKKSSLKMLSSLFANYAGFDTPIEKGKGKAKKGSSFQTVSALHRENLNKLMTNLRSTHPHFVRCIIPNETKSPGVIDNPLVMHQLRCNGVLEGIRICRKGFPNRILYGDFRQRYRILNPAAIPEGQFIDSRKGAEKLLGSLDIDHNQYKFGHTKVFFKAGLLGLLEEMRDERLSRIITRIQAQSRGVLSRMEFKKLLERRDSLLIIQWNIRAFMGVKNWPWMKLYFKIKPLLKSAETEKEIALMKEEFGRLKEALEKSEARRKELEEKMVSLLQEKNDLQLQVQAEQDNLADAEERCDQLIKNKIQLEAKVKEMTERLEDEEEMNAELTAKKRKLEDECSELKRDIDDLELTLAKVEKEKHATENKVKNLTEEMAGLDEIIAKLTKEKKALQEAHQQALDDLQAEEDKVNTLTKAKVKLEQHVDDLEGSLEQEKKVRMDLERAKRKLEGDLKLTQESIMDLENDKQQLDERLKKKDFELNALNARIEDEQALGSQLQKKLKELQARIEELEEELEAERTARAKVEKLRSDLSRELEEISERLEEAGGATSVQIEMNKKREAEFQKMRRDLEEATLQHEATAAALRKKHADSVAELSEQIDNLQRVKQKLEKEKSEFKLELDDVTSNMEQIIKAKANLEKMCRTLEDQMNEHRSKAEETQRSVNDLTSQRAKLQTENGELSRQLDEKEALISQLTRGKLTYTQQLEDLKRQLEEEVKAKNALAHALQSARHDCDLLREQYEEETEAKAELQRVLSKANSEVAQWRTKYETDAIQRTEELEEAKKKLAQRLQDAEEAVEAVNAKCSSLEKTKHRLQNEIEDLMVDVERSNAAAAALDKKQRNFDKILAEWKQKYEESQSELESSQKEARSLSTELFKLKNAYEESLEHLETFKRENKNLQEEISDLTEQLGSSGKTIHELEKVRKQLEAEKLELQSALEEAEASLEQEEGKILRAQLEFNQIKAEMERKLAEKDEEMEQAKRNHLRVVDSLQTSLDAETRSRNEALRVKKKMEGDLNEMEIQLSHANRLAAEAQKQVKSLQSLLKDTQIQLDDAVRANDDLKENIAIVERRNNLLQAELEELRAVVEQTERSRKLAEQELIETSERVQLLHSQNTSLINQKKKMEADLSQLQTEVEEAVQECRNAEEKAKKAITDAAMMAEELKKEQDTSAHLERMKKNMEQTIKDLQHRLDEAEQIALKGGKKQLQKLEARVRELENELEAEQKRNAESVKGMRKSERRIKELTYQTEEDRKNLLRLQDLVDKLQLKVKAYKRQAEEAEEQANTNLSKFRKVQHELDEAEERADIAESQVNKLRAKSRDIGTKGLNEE
bovine cardiac myofibrils (full-length cardiac myosin ATPase in the native sarcomere), sequence (P85100 whole entry partner): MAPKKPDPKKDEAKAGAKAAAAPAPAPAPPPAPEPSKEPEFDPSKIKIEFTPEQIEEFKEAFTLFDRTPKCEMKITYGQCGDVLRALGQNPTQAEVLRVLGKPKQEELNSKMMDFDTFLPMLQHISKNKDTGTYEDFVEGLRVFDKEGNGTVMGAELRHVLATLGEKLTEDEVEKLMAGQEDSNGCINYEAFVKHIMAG
bovine cardiac myofibrils (full-length cardiac myosin ATPase in the native sarcomere), sequence (Q3SZE5 whole entry partner): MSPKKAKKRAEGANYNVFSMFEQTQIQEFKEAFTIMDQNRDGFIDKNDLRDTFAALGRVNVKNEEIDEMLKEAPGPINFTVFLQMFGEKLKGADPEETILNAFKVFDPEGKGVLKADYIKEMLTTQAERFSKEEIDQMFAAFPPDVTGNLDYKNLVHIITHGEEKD

One may read the IC50 as the concentration at which inhibition is half-maximal. In the case of `Cc1nc(-c2ccc3c(c2)CCC3NC(=O)c2ncn(C)n2)no1` (stereo not drawn) [Compound 119, 1-methyl-N-(5-(5-methyl-1,2,4-oxadiazol-3-yl)-2,3-dihydro-1H-inden-1-yl)-1H-1,2,4-triazole-3-carboxamide], the “CDMF75 IC15” value came to 39.2 µM and the IC50 is over 39.2 µM.
With `Cn1nnc(C(=O)N[C@@H]2CCc3cc(-c4nc(C5CC5)no4)ccc32)n1` [Compound 260, (R)-N-(5-(3-cyclopropyl-1,2,4-oxadiazol-5-yl)-2,3-dihydro-1H-inden-1-yl)-2-methyl-2H-tetrazole-5-carboxamide], the “CDMF75 IC15” value amounted to 0.4 µM and the IC50 was determined as 1.4 µM.
In the case of `Cc1nc(-c2ccc3c(c2)CC[C@H]3NC(=O)OCC(C)C)no1` [Compound 320, isobutyl (R)-(5-(5-methyl-1,2,4-oxadiazol-3-yl)-2,3-dihydro-1H-inden-1-yl)carbamate], the “CDMF75 IC15” value worked out at 0.7 µM and the IC50 came to 3.1 µM.
The matching figures for `CCOC(=O)C(C)c1nc(-c2ccc3c(c2)CC[C@H]3NC(=O)c2nnn(C)n2)no1` (stereo partly drawn) [Compound 504, ethyl 2-(3-((R)-1-(2-methyl-2H-tetrazole-5-carboxamido)-2,3-dihydro-1H-inden-5-yl)-1,2,4-oxadiazol-5-yl)propanoate]: 4.4 µM and 16.6 µM.
Consider `Cn1cc(C(=O)N[C@@H]2CCc3cc(-c4noc(C(F)F)n4)ccc32)ccc1=O` [Compound 644, (R)-N-(5-(5-(difluoromethyl)-1,2,4-oxadiazol-3-yl)-2,3-dihydro-1H-inden-1-yl)-1-methyl-6-oxo-1,6-dihydropyridine-3-carboxamide], for which the “CDMF75 IC15” value turned out to be 1.5 µM and the concentration for half-maximal inhibition (IC50) is 5.9 µM.
The matching figures for `CCc1nc(-c2ccc3c(c2)CC[C@H]3NC(=O)c2cnnc(C)c2)no1` [Compound 650, (R)-N-(5-(5-ethyl-1,2,4-oxadiazol-3-yl)-2,3-dihydro-1H-inden-1-yl)-6-methylpyridazine-4-carboxamide]: 0.6 µM and 2.2 µM.
With `Cc1ccc(-c2ccc3c(c2)CC[C@H]3NC(=O)c2ccnn2C)cc1` [Compound 374, (R)-1-methyl-N-(5-(p-tolyl)-2,3-dihydro-1H-inden-1-yl)-1H-pyrazole-5-carboxamide], the “CDMF75 IC15” value is 1.7 µM and the IC50 turned out to be 6.4 µM.
On the same counts, the results for `COCC(=O)N[C@@H]1CCc2cc(-c3noc(C(F)F)n3)ccc21` [Compound 285, (R)-N-(5-(5-(difluoromethyl)-1,2,4-oxadiazol-3-yl)-2,3-dihydro-1H-inden-1-yl)-2-methoxyacetamide] are 9.3 µM and over 39.2 µM.
Turning to `CCc1nc(-c2cnc3c(c2)CCC3NC(=O)c2ccnc(C)c2)no1` (stereo not drawn) [Compound 108, N-(3-(5-ethyl-1,2,4-oxadiazol-3-yl)-6,7-dihydro-5H-cyclopenta[b]pyridin-7-yl)-2-methylisonicotinamide], the “CDMF75 IC15” value amounted to 5.2 µM and the IC50 was 24 µM.
As to `O=C(N[C@@H]1CCc2cc(-c3noc(C4CCC4)n3)ccc21)C(F)F` [Compound 440, (R)-N-(5-(5-cyclobutyl-1,2,4-oxadiazol-3-yl)-2,3-dihydro-1H-inden-1-yl)-2,2-difluoroacetamide], the “CDMF75 IC15” value worked out at 2.7 µM and the IC50 was 10.7 µM.
`Cc1nc(-c2ccc3c(c2)CCC3NC(=O)c2cnn3c2CCC3)no1` (stereo not drawn) [Compound 57, N-(5-(5-methyl-1,2,4-oxadiazol-3-yl)-2,3-dihydro-1H-inden-1-yl)-5,6-dihydro-4H-pyrrolo[1,2-b]pyrazole-3-carboxamide]: the “CDMF75 IC15” value turned out to be 2.8 µM and the IC50 came out at 8.9 µM.
On the same counts, the results for `COC(=O)N[C@@H]1CCc2cc(-c3noc(C(F)F)n3)ccc21` [Compound 282, methyl (R)-(5-(5-(difluoromethyl)-1,2,4-oxadiazol-3-yl)-2,3-dihydro-1H-inden-1-yl)carbamate] are 0.5 µM and 1.9 µM.
On the same counts, the results for `CC(=O)N[C@@H]1CCc2cc(-c3noc(C(C)C)n3)ccc21` [Compound 395, (R)-N-(5-(5-isopropyl-1,2,4-oxadiazol-3-yl)-2,3-dihydro-1H-inden-1-yl)acetamide] are 3.1 µM and 13.5 µM.
The matching figures for `CCc1nc(-c2ccc3c(c2)CC[C@H]3NC(=O)c2nccn2C)no1` [Compound 579, (R)-N-(5-(5-ethyl-1,2,4-oxadiazol-3-yl)-2,3-dihydro-1H-inden-1-yl)-1-methyl-1H-imidazole-2-carboxamide]: 1.2 µM and 5.1 µM.
Turning to `CC(=O)N[C@@H]1CCc2cc(-c3noc(C4CC4)n3)ccc21` [Compound 419, (R)-N-(5-(5-cyclopropyl-1,2,4-oxadiazol-3-yl)-2,3-dihydro-1H-inden-1-yl)acetamide], the “CDMF75 IC15” value was found to be 1.2 µM and the half-inhibitory concentration (IC50) is 4.7 µM.
For `Cc1nc(-c2ccc3c(c2)OC[C@H]3NC(=O)c2cccc(CO)c2)no1` [Compound 717, (S)-3-(hydroxymethyl)-N-(6-(5-methyl-1,2,4-oxadiazol-3-yl)-2,3-dihydrobenzofuran-3-yl)benzamide], the “CDMF75 IC15” value amounted to 0.4 µM and the IC50 was 1.8 µM.
With `Cc1nc(-c2ccc3c(c2)CC[C@H]3NC(=O)c2cnn(CCO)c2)no1` [Compound 520, (R)-1-(2-hydroxyethyl)-N-(5-(5-methyl-1,2,4-oxadiazol-3-yl)-2,3-dihydro-1H-inden-1-yl)-1H-pyrazole-4-carboxamide], the “CDMF75 IC15” value worked out at 1.8 µM and the IC50 is 8.1 µM.
The matching figures for `COCc1nc(-c2ccc3c(c2)OC[C@H]3NC(=O)c2ccnc(CO)c2)no1` [Compound 714, (S)-2-(hydroxymethyl)-N-(6-(5-(methoxymethyl)-1,2,4-oxadiazol-3-yl)-2,3-dihydrobenzofuran-3-yl)isonicotinamide]: 1.4 µM and 5.5 µM.
Consider `Cc1cc(C(=O)N[C@@H]2CCc3cc(-c4nc(C(F)F)no4)ccc32)ccn1` [Compound 133, (R)-N-(5-(3-(difluoromethyl)-1,2,4-oxadiazol-5-yl)-2,3-dihydro-1H-inden-1-yl)-2-methylisonicotinamide], for which the “CDMF75 IC15” value stood at 1.5 µM and the IC50 was determined as 5.7 µM.
The matching figures for `Cc1cccnc1C(=O)NC1CCc2cc(-c3noc(C(F)F)n3)ccc21` (stereo not drawn) [Compound 58, N-(5-(5-(difluoromethyl)-1,2,4-oxadiazol-3-yl)-2,3-dihydro-1H-inden-1-yl)-3-methylpicolinamide]: 4.8 µM and 21 µM.
On the same counts, the results for `Cc1cc(-c2ccc3c(c2)OC[C@H]3NC(=O)c2ocnc2C)no1` [Compound 429, (S)-4-methyl-N-(6-(5-methylisoxazol-3-yl)-2,3-dihydrobenzofuran-3-yl)oxazole-5-carboxamide] are 0.5 µM and 1.5 µM.
For the molecule `CCc1nc(-c2cc3c(cc2F)[C@H](NC(=O)c2cnn(C)c2)CC3)no1` [Compound 699, (R)-N-(5-(5-ethyl-1,2,4-oxadiazol-3-yl)-6-fluoro-2,3-dihydro-1H-inden-1-yl)-1-methyl-1H-pyrazole-4-carboxamide], the “CDMF75 IC15” value was determined as 1.7 µM and the IC50 was determined as 7.5 µM.
On to `Cc1nccnc1C(=O)NC1CCc2cc(-c3noc(C(F)F)n3)ccc21` (stereo not drawn) [Compound 38, N-(5-(5-(difluoromethyl)-1,2,4-oxadiazol-3-yl)-2,3-dihydro-1H-inden-1-yl)-3-methylpyrazine-2-carboxamide], for which the “CDMF75 IC15” value was found to be 2.2 µM and the IC50 turned out to be 9.5 µM.
The matching figures for `CCc1nc(-c2ccc3c(c2)CC[C@H]3NC(=O)OC2COC2)no1` [Compound 357, oxetan-3-yl (R)-(5-(5-ethyl-1,2,4-oxadiazol-3-yl)-2,3-dihydro-1H-inden-1-yl)carbamate]: 0.5 µM and 1.7 µM.
The matching figures for `CCc1nc(-c2ccc3c(c2)CC[C@H]3NC(=O)c2cnn(C[C@H](C)O)c2)no1` [Compound 541, N-[(1R)-5-(5-ethyl(1,2,4-oxadiazol-3-yl))indanyl][1-((2S)-2-hydroxypropyl)pyrazol-4-yl]carboxamide]: 1.2 µM and 5.2 µM.
With `CCc1nc(-c2ccc3c(c2)CC[C@H]3NC(=O)c2cn(CCCO)nc2C)no1` [Compound 612, (R)-N-(5-(5-ethyl-1,2,4-oxadiazol-3-yl)-2,3-dihydro-1H-inden-1-yl)-1-(3-hydroxypropyl)-3-methyl-1H-pyrazole-4-carboxamide], the “CDMF75 IC15” value was determined as 0.7 µM and the IC50 was 2.1 µM.
In the case of `CCc1cc(-c2ccc3c(c2)CC[C@H]3NC(=O)c2cn[nH]c2C)no1` [Compound 431, (R)—N-(5-(5-ethylisoxazol-3-yl)-2,3-dihydro-1H-inden-1-yl)-5-methyl-1H-pyrazole-4-carboxamide], the “CDMF75 IC15” value was determined as 0.3 µM and the IC50 was 0.9 µM.
On the same counts, the results for `Cc1cc(C(=O)NC2COc3cc(-c4noc(C(F)F)n4)cnc32)ccn1` (stereo not drawn) [Compound 195, N-(6-(5-(difluoromethyl)-1,2,4-oxadiazol-3-yl)-2,3-dihydrofuro[3,2-b]pyridin-3-yl)-2-methylisonicotinamide] are 10.1 µM and over 39.2 µM.
On the same counts, the results for `COCc1nc(-c2ccc3c(c2)CC[C@H]3NC(=O)C(F)F)no1` [Compound 437, (R)-2,2-difluoro-N-(5-(5-(methoxymethyl)-1,2,4-oxadiazol-3-yl)-2,3-dihydro-1H-inden-1-yl)acetamide] are 8.8 µM and 34.4 µM.
On the same counts, the results for `CCc1nc(-c2ccc3c(c2)CC[C@H]3NC(=O)c2cnn(CCCOC)c2C)no1` [Compound 598, (R)-N-(5-(5-ethyl-1,2,4-oxadiazol-3-yl)-2,3-dihydro-1H-inden-1-yl)-1-(3-methoxypropyl)-5-methyl-1H-pyrazole-4-carboxamide] are 3.9 µM and 15.7 µM.
